Reference: patent US20170239330A1, “FORMULATIONS FOR HISTATIN THERAPEUTICS” (RAPID PATHOGEN SCREENING, INC., priority 2014, published 2017)

Legend:
[1] = Stability of ocular histatin formulation determined by mass spectroscopy; type: physicochemical; conditions: 100 μg/mL in gel tears lubricating eye drop with 0.25% PEG in aqueous buffered borate salt solution
Procedure: In some embodiments, the ocular histatin formulation is stable both at room temperature (25° C.) and at 45° C. for at least 90 days.

[2] = system: cultured ocular epithelial cells; conditions: in vitro; cited from earlier work

| Substance | Time formulation found stable, by mass spectroscopy ([1]; 25° C.) | Time formulation found stable, by mass spectroscopy ([1]; 45° C.) | Cytotoxicity to cultured ocular epithelial cells [2] |
| --- | --- | --- | --- |
| cyclo(DNLPETGGDSHEKRHHGYRRKFHEKHHSHREFPFYGDYGSNYLY) [cyclized histatin 1] | at least 505 days | at least 90 days |  |
| Benzalkonium chloride |  |  | significant cytotoxicity |
